Holding throughout (assay type): cell-based
Holding throughout (conditions): ratio to NECA

One assay deals with T1, adenosine 2a receptor (Homo sapiens, UniProt P29274).
T1 construct: expressed in transfected cells; host or cells: CHO cells
Kind of assay: Agonist activity, CHO cells transfected with human adenosine receptor and CRE-SPAP reporter; basal cAMP (A2a). On the procedure:
(§1) (1) Agonist activity against adenosine 2a, adenosine 1 and adenosine 3 receptor subtypes.
(§2) Agonist selectivity of compounds against other human adenosine receptors is determined using Chinese hamster ovary (CHO) cells transfected with the gene for the relevant human adenosine receptor following a method based on that of Castanon and Spevak, 1994. The CHO cells are also transfected with cyclic AMP response elements promoting the gene for secreted placental alkaline phosphatase (SPAP) (Wood, 1995). The effect of test compounds may be determined by their effects on basal levels of CAMP (A2a) or on forskolin-enhanced cAMP (A1 and A3) as reflected by changes in levels of SPAP. EC50 values for compounds may then be determined as a ratio to that of the non-selective agonist N-ethyl carboxamide adenosine (NECA).

Another assay has as its target T2, adenosine 3 receptor (Homo sapiens, UniProt P0DMS8).
T2 construct: expressed in transfected cells; host or cells: CHO cells
T2 sequence (P0DMS8 1-318): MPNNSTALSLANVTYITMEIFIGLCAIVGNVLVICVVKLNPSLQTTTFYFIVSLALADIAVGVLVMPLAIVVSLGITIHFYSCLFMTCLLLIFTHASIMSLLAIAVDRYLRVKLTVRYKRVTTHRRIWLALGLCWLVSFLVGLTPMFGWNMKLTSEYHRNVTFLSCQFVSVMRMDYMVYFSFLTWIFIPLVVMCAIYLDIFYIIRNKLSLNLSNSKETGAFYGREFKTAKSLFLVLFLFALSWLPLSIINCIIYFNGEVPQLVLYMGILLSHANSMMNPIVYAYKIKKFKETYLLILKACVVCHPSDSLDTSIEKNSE
Put plainly: Agonist activity, CHO cells transfected with human adenosine receptor and CRE-SPAP reporter; forskolin-enhanced cAMP (A3). The protocol:
as §1, §2

A further assay concerns the target T3, adenosine 1 receptor (Homo sapiens, UniProt P30542).
T3 construct: expressed in transfected cells; host or cells: CHO cells
T3 sequence (P30542 1-326): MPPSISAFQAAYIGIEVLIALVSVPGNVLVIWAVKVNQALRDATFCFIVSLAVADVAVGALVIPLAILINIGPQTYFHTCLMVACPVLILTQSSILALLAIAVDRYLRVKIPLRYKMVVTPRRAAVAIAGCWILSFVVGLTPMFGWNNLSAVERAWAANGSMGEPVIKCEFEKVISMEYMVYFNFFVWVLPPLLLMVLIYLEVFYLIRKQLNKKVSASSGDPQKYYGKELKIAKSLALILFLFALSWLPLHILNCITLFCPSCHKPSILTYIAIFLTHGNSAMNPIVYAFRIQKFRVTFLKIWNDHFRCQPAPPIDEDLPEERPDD
Put plainly: Agonist activity, CHO cells transfected with human adenosine receptor and CRE-SPAP reporter; forskolin-enhanced cAMP (A1). On the procedure:
as §1, §2

Setting [1] is: * data are minimum values since preparation was found, after testing, to contain an inactive impurity.

Structures can show the parent of a compound that is named as a salt.

T1 sequence (P29274 whole entry): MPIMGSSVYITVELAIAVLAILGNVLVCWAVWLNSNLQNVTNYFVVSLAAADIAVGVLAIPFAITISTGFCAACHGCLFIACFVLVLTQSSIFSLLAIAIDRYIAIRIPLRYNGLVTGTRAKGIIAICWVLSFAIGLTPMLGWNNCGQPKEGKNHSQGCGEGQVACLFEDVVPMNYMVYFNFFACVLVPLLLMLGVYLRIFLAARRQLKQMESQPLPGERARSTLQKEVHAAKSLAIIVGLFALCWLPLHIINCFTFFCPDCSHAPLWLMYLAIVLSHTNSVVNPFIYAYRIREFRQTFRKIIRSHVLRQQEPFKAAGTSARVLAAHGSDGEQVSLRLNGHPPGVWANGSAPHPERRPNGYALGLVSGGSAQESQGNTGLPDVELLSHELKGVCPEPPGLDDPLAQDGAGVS

`CCC(CC)Nc1nc(NC(CO)C(C)C)nc2c1ncn2C1OC(c2nc(C)no2)C(O)C1O` [Example 28, (2R,3R,4S,5S)-2-[6-(1-Ethyl-propylamino)-2-(1S-hydroxymethyl-2-methyl-propylamino)-purin-9-yl]-5-(3-methyl-[1,2,4]oxadiazol-5-yl)-tetrahydro-furan-3,4-diol formate]: at adenosine 2a receptor (setting [1]), the “A2a, EC50 as a ratio of that of NECA” value amounted to 5.49. The “A3, EC50 as a ratio of that of NECA” value at adenosine 3 receptor (setting [1]) is given as greater than 284. Further, the “A1, EC50 as a ratio of that of NECA” value on adenosine 1 receptor (setting [1]) was greater than 5263.
In the case of `CCc1noc(C2OC(n3cnc4c(NCC(c5ccccc5)c5ccccc5)nc(NC(CO)C(C)C)nc43)C(O)C2O)n1` [Example 5, (2R,3R,4S,5S)-2-[6-(2,2-Diphenyl-ethylamino)-2-(1S-hydroxymethyl-2-methyl-propylamino)-purin-9-yl]-5-(3-ethyl-[1,2,4]oxadiazol-5-yl)-tetrahydro-furan-3,4-diol formate], the “A2a, EC50 as a ratio of that of NECA” value at adenosine 2a receptor (CHO cells, SPAP readout) turned out to be 6.12. In addition, the “A3, EC50 as a ratio of that of NECA” value on adenosine 3 receptor (CHO cells, SPAP readout) is greater than 309. Moreover, the “A1, EC50 as a ratio of that of NECA” value at adenosine 1 receptor (CHO cells, SPAP readout) is recorded as 1391.2.
On to `Cc1noc(C2OC(n3cnc4c(NCC(c5ccccc5)c5ccccc5)nc(NCCc5c[nH]cn5)nc43)C(O)C2O)n1` [Example 34, (2R,3R,4S,5S)-2-{6-(2,2-Diphenyl-ethylamino)-2-[2-(1H-imidazol-4-yl)-ethylamino]-purin-9-yl}-5-(3-methyl-[1,2,4oxadiazol-5-yl)-tetrahydro-furan-3,4-diol formate], for which the “A2a, EC50 as a ratio of that of NECA” value at adenosine 2a receptor (setting [1]) came to 8.31. Also, at adenosine 3 receptor (setting [1]), the “A3, EC50 as a ratio of that of NECA” value came out at 231.1. In addition, the “A1, EC50 as a ratio of that of NECA” value on adenosine 1 receptor (setting [1]) is 3270.8.
In the same order, the values of `CCC(CC)Nc1nc(NC(CO)Cc2ccccc2)nc2c1ncn2C1OC(c2nc(C)no2)C(O)C1O` [Example 17, (2R,3R,4S,5S)-2-[6-(1-Ethyl-propylamino)-2-(1S-hydroxymethyl-2-phenl-ethylamino)-purin-9-yl]-5-(3-methyl-[1,2,4]oxadiazol-5-yl)-tetrahydro-furan-3,4-diol formate] are 3.97, greater than 362 and greater than 6244.
Regarding `CCc1noc(C2OC(n3cnc4c(N)nc(NCCc5cn(C)cn5)nc43)C(O)C2O)n1` [Example 10, (2R,3R,4S,5S)-2-{6-Amino-2-[2-(1-methyl-1H-imidazol-4-yl)-ethylamino]-purin-9-yl}-5-(3-ethyl-1,2,4]oxadiazol-5-yl)-tetrahydro-furan-3,4-diol diformate], the “A2a, EC50 as a ratio of that of NECA” value at adenosine 2a receptor (setting [1]) was found to be 7.66. Moreover, the “A3, EC50 as a ratio of that of NECA” value on adenosine 3 receptor (setting [1]) was greater than 269. Moreover, the “A1, EC50 as a ratio of that of NECA” value at adenosine 1 receptor (setting [1]) was 3449.6.
In the same order, the values of `CCC(CC)Nc1nc(NCCN2CCOCC2)nc2c1ncn2[C@@H]1O[C@H](c2nc(C)no2)[C@@H](O)[C@H]1O.O=CO` [Example 6, (2R,3R,4S,5S)-2-[6-(1-Ethyl-propylamino)-2-(2-morpholin-4-yl-ethylamino)-purin-9-yl]-5-(3-methyl-[1,2,4]oxadiazol-5-yl)-tetrahydro-furan-3,4-diol formate] are 41.35, greater than 642 and greater than 4833.
Turning to “(2S,3S,4R,5R)-2-(3-Cyclopropyl-[1,2,4]oxadiazol-5-yl)-5-[6-(1-ethyl-propylamino)-2-(2-(1-methyl-1H-imidazol-4-yl)-ethylamino)-purin-9-yl]-tetrahydro-furan-3,4-diol diformate [Example 38]”, on adenosine 2a receptor (CHO cells, SPAP readout), the “A2a, EC50 as a ratio of that of NECA” value is given as 2.02. Also, the “A3, EC50 as a ratio of that of NECA” value on adenosine 3 receptor (CHO cells, SPAP readout) is reported as greater than 87. For the same compound, the “A1, EC50 as a ratio of that of NECA” value at adenosine 1 receptor (CHO cells, SPAP readout) worked out at 670.04.
In the case of `CCc1noc([C@H]2O[C@@H](n3cnc4c(NC(CC)CC)nc(NCCc5ccccn5)nc43)[C@H](O)[C@@H]2O)n1.O=CO` [Example 21, (2S,3S,4R,5R)-2-(3-Ethyl-[1,2,4]oxadiazol-5-yl)-5-[6-(1-ethyl-propylamino)-2-(2-pyridin-2-yl-ethylamino)-purin-9-yl]-tetrahydro-furan-3,4-diol formate], the “A2a, EC50 as a ratio of that of NECA” value on adenosine 2a receptor (setting [1]) stood at 9.39. Further, the “A3, EC50 as a ratio of that of NECA” value at adenosine 3 receptor (setting [1]) is reported as greater than 303. In addition, the “A1, EC50 as a ratio of that of NECA” value on adenosine 1 receptor (setting [1]) is on record as greater than 5090.
For `Cc1noc([C@H]2O[C@@H](n3cnc4c(N)nc(NCCc5ccccc5)nc43)[C@H](O)[C@@H]2O)n1.O=C(O)C(F)(F)F` [Example 15, (2R,3R,4S,5S)-2-(6-Amino-2-phenethylamino-purin-9-yl)-5-(3-methyl-[1,2,4]oxadiazol-5-yl)-tetrahydro-furan-3,4-diol trifluoroacetate], on adenosine 2a receptor (CHO cells, SPAP readout), the “A2a, EC50 as a ratio of that of NECA” value is on record as 2.29. Further, the “A3, EC50 as a ratio of that of NECA” value on adenosine 3 receptor (CHO cells, SPAP readout) is greater than 130. Moreover, on adenosine 1 receptor (CHO cells, SPAP readout), the “A1, EC50 as a ratio of that of NECA” value was greater than 5511.
Take `CCc1noc([C@H]2O[C@@H](n3cnc4c(NC(CC)CC)nc(N[C@H]5CC[C@H](N)CC5)nc43)[C@H](O)[C@@H]2O)n1.O=CO` [Example 29, (2R,3R,4S,5S)-2-[2-(trans-4-Amino-cyclohexylamino)-6-(1-ethyl-propylamino)-purin-9-yl]-5-(3-ethyl-[1,2,4]oxadiazol-5-yl)-tetrahydro-furan-3,4-diol formate]: on adenosine 2a receptor (setting [1]), the “A2a, EC50 as a ratio of that of NECA” value came to 8.92. The “A3, EC50 as a ratio of that of NECA” value on adenosine 3 receptor (setting [1]) is listed as greater than 117. Further, the “A1, EC50 as a ratio of that of NECA” value on adenosine 1 receptor (setting [1]) is 989.5.
Regarding `CCc1noc(C2OC(n3cnc4c(NCC(c5ccccc5)c5ccccc5)nc(NC5CCC(N)CC5)nc43)C(O)C2O)n1.O=CO.O=CO` [Example 4, (2R,3R,4S,5S)-2-[2-(trans-4-Amino-cyclohexylamino)-6-(2,2-diphenyl-ethylamino)-purin-9-yl]-5-(3-ethyl-[1,2,4]oxadiazol-5-yl)-tetrahydro-furan-3,4-diol diformate], the “A2a, EC50 as a ratio of that of NECA” value at adenosine 2a receptor (CHO cells, SPAP readout) came out at 5.37. For the same compound, the “A3, EC50 as a ratio of that of NECA” value on adenosine 3 receptor (CHO cells, SPAP readout) is on record as greater than 383. The “A1, EC50 as a ratio of that of NECA” value on adenosine 1 receptor (CHO cells, SPAP readout) was “>=3996”.
For the compound `CCc1noc([C@H]2O[C@@H](n3cnc4c(NCC(c5ccccc5)c5ccccc5)nc(Nc5ccc(F)cc5)nc43)[C@H](O)[C@@H]2O)n1.O=CO` [Example 44, (2R,3R,4S,5S)-2-[6-(2,2-Diphenyl-ethylamino)-2-(4-fluoro-phenylamino)-purin-9-yl]-5-(3-ethyl-[1,2,4]oxadiazol-5-yl)-tetrahydro-furan-3,4-diol formate], at adenosine 2a receptor (CHO cells, SPAP readout), the “A2a, EC50 as a ratio of that of NECA” value was 94.39. The “A3, EC50 as a ratio of that of NECA” value on adenosine 3 receptor (CHO cells, SPAP readout) is reported as greater than 165. Moreover, the “A1, EC50 as a ratio of that of NECA” value at adenosine 1 receptor (CHO cells, SPAP readout) is greater than 6131.
Consider `CCC(CC)Nc1nc(N[C@H]2CC[C@H](N)CC2)nc2c1ncn2[C@@H]1O[C@H](c2nc(C)no2)[C@@H](O)[C@H]1O.O=CO` [Example 16, (2R,3R,4S,5S)-2-[2-(trans-4-Amino-cyclohexylamino)-6-(1-ethyl-propylamino)-purin-9-yl]-5-(3-methyl-[1,2,4]oxadiazol-5-yl)tetrahydro-furan-3,4-diol formate], for which, on adenosine 2a receptor (setting [1]), the “A2a, EC50 as a ratio of that of NECA” value is 11.87. The “A3, EC50 as a ratio of that of NECA” value at adenosine 3 receptor (setting [1]) is greater than 362. The “A1, EC50 as a ratio of that of NECA” value on adenosine 1 receptor (setting [1]) was greater than 6244.

Source of the values: patent US6610665B1 (Smithkline Beecham Corporation, priority 1998, dated 2003).
